One compound from patent US20080221074A1, “Drug Screen and Treatment Method” (priority 2006, published 2008) can be followed below.

Experiment [1] has as its system carrageenan-λ induced pleurisy. The experiment can be described thus: carrageenan-λ induced lung (pleural cavity) inflammation. Type of experiment: in vivo, CD1 male mice. To be noted: oral gavage; 1 mg and 0.1 mg (17α-ethynyl triol), 40 mg/kg (17β-amino compound).
Experiment [2] deals with monocyte chemoattractant protein-1 (MCP-1). In words: MCP-1 RNA in perigonadal fat tissue by quantitative RT/PCR. Type of experiment: in vivo, db/db mice. To be noted: 20 mg/kg; normalized to vehicle control. As for the experimental part:
In another study, total RNA from perigonadal fat tissue from lean db/+ or diabetic db/db mice treated with 20 mg/kg of 17α-ethynylandrost-5-ene-3β,7β,17β-triol was isolated and processed for quantitative RT/PCR using primers specific for monocyte chemoattractant protein-1 (MCP-1) using an icycler iQ multicolor real time-detection system (Bio-Rad). RNA expression levels were normalized with respect to the vehicle control. […] For this study, vehicle was also administered to a control group of age matched lean heterozygous db/+ mice (n=7).

The subject of experiment [3] is glucose intolerance in DIO mice. The experiment can be described thus: diet induced obesity (DIO) mouse hyperglycemia treatment. Type of experiment: in vivo. The following applies: 20, 40 or 80 mg/kg twice a day up to 28 days. The text has this:
Diet induced obesity (DIO) mouse hyperglycemia treatment. The effect of a drug to enhance peripheral sensitivity to insulin can be studied in a mouse model in which a state of insulin resistance is attained by feeding the animals a fat-enriched diet (60% of total caloric intake) for at least 6 weeks. This model has been described, e.g., J. N. Thupari et al., Proc. Natl. Acad. Sci. USA, 99(14):9498-9502, 2002, H. Xu et al., J. Clin. Invest., 112:1821-1830, 2003, H. Takahashi et al., J. Biol. Chem., 278(47):46654-46660, 2003.
For these studies, animals of approximately […] of age were divided into groups of 10 animals each and then treated with a vehicle control (no drug) or 17α-ethynylandrost-5-ene-3β,7β,17β-triol by oral gavage. The 17α-ethynylandrost-5-ene-3β,7β,17β-triol was administered at 20 mg/kg, 40 mg/kg or 80 mg/kg twice a day for up to 28 days. At day 14 and day 28 during the dosing period an OGTT was performed.

The target of a further experiment is estrogen receptor-α (Homo sapiens, UniProt P03372). In words: interaction with sex hormone receptor. Format: binding.
Chain of estrogen receptor-α (P03372 whole entry): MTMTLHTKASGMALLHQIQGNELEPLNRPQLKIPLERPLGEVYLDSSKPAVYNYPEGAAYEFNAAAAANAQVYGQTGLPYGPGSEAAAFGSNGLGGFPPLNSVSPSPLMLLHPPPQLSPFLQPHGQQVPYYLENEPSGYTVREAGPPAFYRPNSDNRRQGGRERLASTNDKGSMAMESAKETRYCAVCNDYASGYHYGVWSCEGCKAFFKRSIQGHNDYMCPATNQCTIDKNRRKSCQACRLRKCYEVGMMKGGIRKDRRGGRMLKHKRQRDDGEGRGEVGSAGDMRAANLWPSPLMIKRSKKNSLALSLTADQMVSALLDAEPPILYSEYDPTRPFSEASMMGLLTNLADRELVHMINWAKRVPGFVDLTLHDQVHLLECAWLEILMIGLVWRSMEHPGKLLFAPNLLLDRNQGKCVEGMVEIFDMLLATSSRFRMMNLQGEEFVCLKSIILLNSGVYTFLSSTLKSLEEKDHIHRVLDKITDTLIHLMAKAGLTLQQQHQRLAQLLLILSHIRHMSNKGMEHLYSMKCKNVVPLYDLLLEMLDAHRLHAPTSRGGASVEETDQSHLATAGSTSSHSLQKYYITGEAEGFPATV
Another experiment has as its target estrogen receptor-β (Homo sapiens, UniProt Q92731). In words: interaction with sex hormone receptor. Type of experiment: binding.

Chain of estrogen receptor-β (Q92731 whole entry, species assumed): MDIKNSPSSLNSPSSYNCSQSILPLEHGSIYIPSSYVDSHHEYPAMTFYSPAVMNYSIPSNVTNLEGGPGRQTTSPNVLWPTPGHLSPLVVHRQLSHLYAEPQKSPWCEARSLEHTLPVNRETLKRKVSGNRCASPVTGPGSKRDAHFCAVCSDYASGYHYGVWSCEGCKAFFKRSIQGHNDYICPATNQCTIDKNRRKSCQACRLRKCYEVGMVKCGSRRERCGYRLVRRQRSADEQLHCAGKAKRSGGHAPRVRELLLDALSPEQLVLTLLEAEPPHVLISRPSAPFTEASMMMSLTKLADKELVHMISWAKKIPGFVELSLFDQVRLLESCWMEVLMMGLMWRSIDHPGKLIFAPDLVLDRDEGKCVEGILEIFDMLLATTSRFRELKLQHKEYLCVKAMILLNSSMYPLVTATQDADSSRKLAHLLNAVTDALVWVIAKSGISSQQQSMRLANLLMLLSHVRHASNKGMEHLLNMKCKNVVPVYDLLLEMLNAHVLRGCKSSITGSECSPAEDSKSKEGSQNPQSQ

In the case of `C#C[C@]1(O)CC[C@H]2[C@@H]3[C@@H](O)C=C4C[C@@H](O)CC[C@]4(C)[C@H]3CC[C@@]21C` [17α-ethynylandrost-5-ene-3β,7β,17β-triol], the “anti-inflammation activity compared to vehicle controls” value in experiment [1] is reported as “statistically significant anti-inflammation activity”. The “decrease of MCP-1 levels” value in experiment [2] is listed as “about 50%”. For the same compound, the “glucose intolerance (OGTT glycemic excursion) vs vehicle” value in experiment [3] is recorded as “notably reduced glucose intolerance”. Moreover, the “interaction with estrogen receptor-α” value at estrogen receptor-α is on record as “do not interact”. Moreover, the “interaction with estrogen receptor-β” value at estrogen receptor-β was “do not interact”.
